Test results taken from US9540345B2, “Antiviral compounds” (priority 2013, dated 2017).
Counter-ions that a name gives are not always drawn. Like-named read-outs stand apart in the source and are kept apart here.

Legend:
[1] = system: pseudotyped HCV GT1b particles (HCVpp); assay: microbe, parasite or virus in culture; assay type: cell-based, HCV GT1b Con1 strain
[2] = system: pseudotyped VSV G particles (VSVpp); assay: microbe, parasite or virus in culture; assay type: cell-based, vesicular stomatitis virus
[3] = Hepatitis C virus, GT1B, 72 h, read-out: HCVpp GT-1b (EC50, μM)
[4] = Vesicular stomatitis virus, 72 h, read-out: VSVpp (EC50, μM)

Molecule	EC50 [1, 3] [µM]	EC50 [2, 4] [µM]	EC50 ([1]; read-out: HCVpp GT-1b (EC50)) [µM]	EC50 ([2]; read-out: VSVpp (EC50)) [µM]
Nc1nc(Nc2cc(Cl)c(-c3ccc(Cl)s3)c(Cl)c2)n[nH]1 [Compound 36, N-3-[3,5-Dichloro-4-(5-chloro-thiophen-2-yl)-phenyl]-1H-[1,2,4]triazole-3,5-diamine]	0.558	11.9	–	–
N3-(3-chloro-4-(1-methyl-1H-1,2,4-triazol-5-yl)phenyl)-1H-1,2,4-triazole-3,5 diamine [Compound 16]	–	–	34.8	–
N*3*-{3-Chloro-4-[6-(propane-2-sulfonyl)-pyridin-3-yl]-5-trifluoromethyl-phenyl}-1H-[1,2,4]triazole-3,5-diamine [Compound 23]	–	–	0.179	7.5
N*3*-(3,5-Dichloro-4-[1,2,4]triazolo[4,3-a]pyridin-3-yl-phenyl)-1H-[1,2,4]triazole-3,5-diamine [Compound 22]	–	–	2.04	–
N3-(3,5-dichloro-4-(1,2,3,6-tetrahydropyridin-4-yl)phenyl)-1H-1,2,4-triazole-3,5-diamine [Compound 19]	–	–	0.505	–
Nc1nc(Nc2cc(Cl)c(-c3ccc(C(F)(F)F)nc3)c(Cl)c2)n[nH]1 [Compound 41, N-3-[3,5-Dichloro-4-(6-trifluoromethyl-pyridin-3-yl)-phenyl]-1H-[1,2,4]triazole-3,5-diamine]	0.703	32.6	–	–
Nc1ncc(-c2c(Cl)cc(Nc3n[nH]c(N)n3)cc2Cl)cn1 [Compound 5, N*3*-[4-(2-Amino-pyrimidin-5-yl)-3,5-dichloro-phenyl]-1H-[1,2,4]triazole-3,5-diamine]	0.1	0.4	–	–
CS(=O)(=O)c1cncc(-c2c(Cl)cc(Nc3n[nH]c(N)n3)cc2Cl)c1 [Compound 2, N*3*-[3,5-Dichloro-4-(5-methanesulfonyl-pyridin-3-yl)-phenyl]-1H-[1,2,4]triazole-3,5-diamine]	0.386	≥ 10	–	–
Nc1nc(Nc2cc(Cl)c(-c3cccnc3)c(Cl)c2)n[nH]1 [Compound 37, N-3-(3,5-Dichloro-4-pyridin-3-yl-phenyl)-1H-[1,2,4]triazole-3,5-diamine]	0.413	8.1	–	–
CS(=O)(=O)Nc1ccc(-c2c(Cl)cc(Nc3n[nH]c(N)n3)cc2Cl)cn1 [Compound 8, N-{5-[4-(5-Amino-1H-[1,2,4]triazol-3-ylamino)-2,6-dichloro-phenyl]-pyridin-2-yl}-methanesulfonamide]	0.386	≥ 10	–	–
CC(=O)c1sccc1-c1c(Cl)cc(Nc2n[nH]c(N)n2)cc1Cl [Compound 34, 1-{3-[4-(5-Amino-1H-[1,2,4]triazol-3-ylamino)-2,6-dichloro-phenyl]-thiophen-2-yl}-ethanone]	0.144	1.8	–	–
Nc1nc(Nc2cc(Cl)c(-c3cc[nH]c(=O)c3)c(Cl)c2)n[nH]1 [Compound 7, 4-[4-(5-Amino-1H-[1,2,4]triazol-3-ylamino)-2,6-dichloro-phenyl]-1H-pyridin-2-one]	0.809	≥ 10	–	–
Nc1nc(Nc2cc(Cl)c(-c3ccnnc3)c(Cl)c2)n[nH]1 [Compound 33, N3-(3,5-dichloro-4-(pyridazin-4-yl)phenyl)-1H-1,2,4-triazole-3,5-diamine]	0.78	10.6	–	–
Nc1nc(Nc2ccc(-c3cccnn3)c(Cl)c2)n[nH]1 [Compound 14, N3-(3-chloro-4-(pyridazin-3-yl)phenyl)-1H-1,2,4-triazole-3,5-diamine]	6.52	15	–	–
Nc1nc(Nc2cc(Cl)c(-n3ccccc3=O)c(Cl)c2)n[nH]1 [Compound 30, 1-[4-(5-Amino-1H-[1,2,4]triazol-3-ylamino)-2,6-dichloro-phenyl]-1H-pyridin-2-one]	5.75	5.6	–	–
CS(=O)(=O)c1ccc(-c2c(Cl)cc(Nc3nc(N)n[nH]3)cc2Cl)cn1 [Compound 11, N^5-(3,5-Dichloro-4-(6-methanesulfonyl-pyridin-3-yl)-phenyl)-1H-[1,2,4]-triazole-3,5-diamine]	0.271	2.2	–	–
COc1ccc(-c2c(Cl)cc(Nc3n[nH]c(N)n3)cc2Cl)cn1 [Compound 1, N*3*-[3,5-Dichloro-4-(6-methoxy-pyridin-3-yl)-phenyl]-1H-[1,2,4]triazole-3,5-diamine]	0.767	3.7	–	–
Nc1nc(Nc2cc(Cl)c(C3=NCCCN3)c(Cl)c2)n[nH]1 [Compound 31, N3-(3,5-dichloro-4-(1,4,5,6-tetrahydropyrimidin-2-yl)phenyl)-1H-1,2,4-triazole-3,5-diamine. trifluoroacetic salt]	5.45	4.7	–	–
Nc1nc(Nc2cc(Cl)c(-c3ccc(=O)[nH]c3)c(Cl)c2)n[nH]1 [Compound 3, 5-[4-(5-Amino-1H-[1,2,4]triazol-3-ylamino)-2,6-dichloro-phenyl]-1H-pyridin-2-one]	0.364	≥ 10	–	–

Molecule	EC50 [1, 3] [µM]	EC50 [2, 4] [µM]	EC50 ([1]; read-out: HCVpp GT-1b (EC50)) [µM]	EC50 ([2]; read-out: VSVpp (EC50)) [µM]
CC(C)(NS(=O)(=O)c1ccc(-c2c(Cl)cc(Nc3n[nH]c(N)n3)cc2C(F)(F)F)cn1)C(F)(F)F [Compound 25, 5-[4-(5-Amino-1H-[1,2,4]triazol-3-ylamino)-2-chloro-6-trifluoromethyl-phenyl]-pyridine-2-sulfonic acid (2,2,2-trifluoro-1,1-dimethyl-ethyl)-amide]	0.005	≥ 10	–	–
Nc1nc(Nc2ccc(-n3ccccc3=O)c(Cl)c2)n[nH]1 [Compound 29, 1-[4-(5-Amino-1H-[1,2,4]triazol-3-ylamino)-2-chloro-phenyl]-1H-pyridin-2-one]	13.7	8.1	–	–
N3-[3-Chloro-4-(1,2,3,6-tetrahydro-pyridin-4-yl)-5-trifluoromethyl-phenyl]-1H-[1,2,4]triazole-3,5-diamine hydrochloride [Compound 21]	–	–	0.568	–
tert-Butyl 4-(4-(5-amino-1H-1,2,4-triazol-3-ylamino)-2-chloro-6-(trifluoromethyl)phenyl)-5,6-dihydropyridine-1(2H)-carboxylate [Compound 20]	–	–	0.073	13.6
Nc1nc(Nc2ccc(-n3ccccc3=O)cc2)n[nH]1 [Compound 28, 1-[4-(5-Amino-1H-[1,2,4]triazol-3-ylamino)-phenyl]-1H-pyridin-2-one]	100	≥ 100	–	–
Nc1nc(Nc2cc(Cl)c(-c3cncnc3)c(Cl)c2)n[nH]1 [Compound 39, N-3-(3,5-Dichloro-4-pyrimidin-5-yl-phenyl)-1H-[1,2,4]triazole-3,5-diamine]	0.536	5.1	–	–
Cn1cc(-c2c(Cl)cc(Nc3n[nH]c(N)n3)cc2Cl)c(C(F)(F)F)n1 [Compound 42, N-3-[3,5-Dichloro-4-(1-methyl-3-trifluoromethyl-1H-pyrazol-4-yl)-phenyl]-1H-[1,2,4]triazole-3,5-diamine]	0.0527	2.4	–	–
Nc1n[nH]c(Nc2cc(F)c(-c3cccnc3)c(C(F)(F)F)c2)n1 [Compound 10, N^5-(3-Fluoro-4-(pyridin-3-yl)-5-trifluoromethylphenyl)-1H-[1,2,4]-triazole-3,5-diamine]	1.24	34.2	–	–
Nc1ccc(-c2c(Cl)cc(Nc3n[nH]c(N)n3)cc2Cl)cn1 [Compound 4, N*3*-[4-(6-Amino-pyridin-3-yl)-3,5-dichloro-phenyl]-1H-[1,2,4]triazole-3,5-diamine]	0.173	1.4	–	–
Nc1nc(Nc2cc(Cl)c(-c3cncc(Cl)c3)c(Cl)c2)n[nH]1 [Compound 43, N-3-[3,5-Dichloro-4-(5-chloro-pyridin-3-yl)-phenyl]-1H-[1,2,4]triazole-3,5-diamine]	0.771	5.3	–	–
COc1cc(-c2c(Cl)cc(Nc3n[nH]c(N)n3)cc2Cl)ccn1 [Compound 6, N3-(3,5-dichloro-4-(2-methoxypyridin-4-yl)phenyl)-1H-1,2,4-triazole-3,5-diamine]	0.33	≥ 10	–	–
COc1cccc(-c2c(Cl)cc(Nc3n[nH]c(N)n3)cc2Cl)n1 [Compound 44, N-3-[3,5-Dichloro-4-(6-methoxy-pyridin-2-yl)-phenyl]-1H-[1,2,4]triazole-3,5-diamine]	1.16	7.8	–	–
CC(C)(C)OC(=O)N1CC2(C1)CN(c1c(Cl)cc(Nc3nc(N)n[nH]3)cc1Cl)C2 [Compound 12, 6-[4-(5-Amino-2H-[1,2,4]triazol-3-ylamino)-2,6-dichlorophenyl]-2,6-diaza-spiro[3.3]heptane-2-carboxylic acid tert-butyl ester]	0.216	≥ 10	–	–
CNC(=O)c1ccc(-c2c(Cl)cc(Nc3n[nH]c(N)n3)cc2C(F)(F)F)cn1 [Compound 32, 5-(4-(5-amino-1H-1,2,4-triazol-3-ylamino)-2-chloro-6-(trifluoromethyl)phenyl)-N-methylpicolinamide]	0.169	21.8	–	–
Nc1nc(Nc2cc(Cl)c(-n3cccn3)c(Cl)c2)n[nH]1 [Compound 17, N3-(3,5-dichloro-4-(1H-pyrazol-1-yl)phenyl)-1H-1,2,4-triazole-3,5-diamine]	4.14	34.6	–	–
5-[4-(5-Amino-1H-[1,2,4]triazol-3-ylamino)-2-chloro-6-trifluoromethyl-phenyl]-pyridine-2-sulfonic acid tert-butylamide [Compound 24]	–	–	0.008	4.1
Nc1nc(Nc2cc(Cl)c(-c3ccncc3)c(Cl)c2)n[nH]1 [Compound 35, N-3-(3,5-Dichloro-4-(pyridin-4-yl)phenyl)-1H-1,2,4-triazole-3,5-diamine]	0.338	2.5	–	–
N3-(3-Chloro-4-(1-methyl-1H-tetrazol-5-yl)phenyl)-1H-1,2,4-triazole-3,5-diamine [Compound 15]	–	–	6.72	–
N3-(2-chloro-4′-(4-methylpiperazin-1-yl)-6-(trifluoromethyl)biphenyl-4-yl)-1H-1,2,4-triazole-3,5-diamine [Compound 27]	–	–	0.301	–
